EP2228429A1, “Shading dye and catalyst combination” (Unilever PLC, priority 2009, dated 2010)

Experiments:
[1] = Example 2: shading of cotton washed with Persil Colour powder containing acid blue 25, catalyst and hydrogen peroxide (reflectometer, delta E); parameters: key: reflectometer delta E vs cloth washed without added dye or bleach; settings: 0.3% acid blue 25 in powder, 2.5g/L, 30°C, 30 minutes
Procedure: Various amounts of catalyst AC and DC were separately added to Persil Colour (TM) washing powder, such that when the powder was dosed at 2.5g/L a 1, 2, 4 and 8 micromolar solution of the catalysts were obtained. Persil Colour is a commercial washing powder containing 5-15% anionic surfactant and non-ionic surfactant, 15-30% zeolite and less than 5% soap, polycarboxylate and phosphate. It also contains enzymes. 0.3% of the dye acid blue 25 was also added to the powder. The so-created powders were used to wash bleach non-mercerised woven cotton at 30°C, for 30 minutes with a liquor to cloth ration of 30:1 and 2.5g/L powder. Various amounts of hydrogen peroxide was added to activate the catalyst. Following the wash the clothes were rinsed dried and the shading on the cloth measured using a reflectometer and expressed as the delta E values relative to cloth washed with Persil Colour without added dye or bleach system.

[2] = Example 3: bleaching of BC1 stain monitor cloth with catalyst AC and hydrogen peroxide (delta E); settings: pH=10, 0.5g/L LAS, 30°C, 30 minutes
Procedure: BC1 (fixed tea stain) bleachable stain test monitor cloth was washed in a bicarbonate buffer (pH=10) with 0.5g/L LAS surfactant, a Liquor to Cloth ratio of 60:1, a temperature of 30°C and a wash time of 30 minutes. The experiment was repeated with various levels of catalyst AC and hydrogen peroxide. The final colour of the cloth was measured and expressed as the delta E relative to a clean piece of cotton. Lower values indicate effective bleaching of the stain.

[3] = Example 7: shading of white cotton washed with Persil Colour containing direct violet 51 and bleach system; settings: 100 ppb direct violet 51, 5g/L Persil Colour, 40°C, 30 minutes
Procedure: (§1) White non-mercerised cotton sheeting was washed at 40°C in 5g/L Persil Colour for 30 minutes with a liquor to cloth ratio of 60:1. Persil Colour is a zeolite/anionic/non-ionic surfactant based washing powder. Direct Violet 51 was added to the powder such that 100 ppb of direct violet 51 was in the wash liquor.
(§2) The experiment was repeated with the addition of 10 micromolar catalyst with 10 millimolar peroxide and 2 micromolar catalyst with 2 millimolar peroxide. Following rinsing and drying the colour of the cloth was measured relative to a white cotton control cloth washed without addition of direct violet 51.

[4] = Example 7: bleaching of BC1 monitor washed with Persil Colour and bleach system; settings: no direct violet 51, liquor to cloth ratio 120:1
Procedure: as §1, §2
The experiment was then repeated using a BC1 model tea bleach monitor and a liquor to cloth ratio of 120:1. For clarity no direct violet 51 was added to the Persil Colour in this case.

[5] = Example 1: bleaching of shading dyes in pH=10 buffer by catalyst AC and hydrogen peroxide, from optical density; settings: after 30 minutes at 20 °C; for % bleaching (a): (a) 1 micromolar AC, 1 millimolar hydrogen peroxide; for % bleaching (b): (b) 4 micromolar AC, 4 millimolar hydrogen peroxide
Procedure: A selection of shading dyes, which deposit onto cotton from wash solutions and have varying structures, was made. Solution of these dyes were made in pH=10 buffer such that the optical density at 1 cm was approximately 1. To this solution the catalyst AC was added alongside hydrogen peroxide such that the concentrations were: • (a) 1 micromolar AC, 1 millimolar hydrogen peroxide • (b) 4 micromolar AC, 4 millimolar hydrogen peroxide The optical density of the dye was measured at the beginning of the experiment and after 30 minutes at 20 °C. From these measurements the % of dye bleaching was calculated using the equation % bleaching = 100 x (ODinitial-OD30 minutes)/ODinitial [formula]

[6] = Example 5: dye bleaching in solution at pH=10 by catalyst and peroxide
Text: Bleaching was much slower with […] 2 millimolar peroxide.

[7] = Example 6: take up of hydrophobic shading dyes by polyester in a wash with catalyst and hydrogen peroxide (delta E); settings: 0.2ppm dye, 1.8g/L powder, 30 minutes at 20°C
Procedure: White knitted polyester was washed for 30 minutes at 20°C in 1.8g/L of Brihlante™ washng powder (ex Brasil) with a liquor to cloth ration of 100:1. This is a phosphate/anionic surfactant based powder. Various levels of catalyst BC and hydrogen peroxide was added to the wash liquor alongside 0.2ppm of the hydrophobic shading dyes disperse blue 79:1 (azo dye) and solvent violet 13 (anthraquinone dye). The take up of the hydrophobic shading by the polyester was measured as the delta E relative to white cotton and the results shown below.

[8] = Example 4: bleaching of black tea stain on cotton sheeting; settings: pH=10 solution, 2 micromolar DC and 2 millimolar peroxide; versus control with 2 micromolar Mn(II) and 2 millimolar peroxide
Procedure: Black tea beverage was created by placing 1 PG Tips pyramid tea bag in 400ml of boiled ultrapure water for 5 minutes. The tea bag was then removed and the beverage cooled to room temperature. Non-mercerised non-fluorescent white cotton sheeting was dipped in the cold tea and removed. The cloth was left to dry for 1 day in the dark, then used for experiments.

[9] = 1 micromolar catalyst, 1 millimolar H2O2, relative to cloth washed without dye or bleach system
[10] = 2 micromolar catalyst, 2 millimolar H2O2
[11] = 4 micromolar catalyst, 4 millimolar H2O2
[12] = 8 micromolar catalyst, 8 millimolar H2O2
[13] = 2 micromolar catalyst, 2 millimolar H2O2, colour relative to white cotton control washed without dye
[14] = 10 micromolar catalyst, 10 millimolar H2O2
[15] = pH=10, 2 micromolar catalyst with 2 millimolar peroxide
[16] = pH=10, 10 micromolar catalyst with 10 millimolar peroxide
[17] = 0 micromolar catalyst, 0 millimolar H2O2
[18] = 1 micromolar catalyst, 1 millimolar H2O2
[19] = 2 millimolar H2O2 without catalyst
[20] = 10 millimolar H2O2 without catalyst

COC(=O)C12CN(C(C)CN(C)C)CC(C(=O)OC)(C1=O)C(c1ccccn1)N(C)C2c1ccccn1 (stereo not shown) [AC]
Delta E [1, 9]: 5.1 | Delta E [1, 10]: 2.0 | Delta E [1, 11]: 0.4 | Delta E [1, 12]: 0.3 | Delta E ([2]; 1 micromolar AC, 1 millimolar H2O2, relative to clean cotton, lower = effective bleaching): 17.0 | Delta E ([2]; 1 micromolar AC, 2 millimolar H2O2): 16.2 | Delta E ([2]; 2 micromolar AC, 1 millimolar H2O2): 15.9 | Delta E ([2]; 2 micromolar AC, 2 millimolar H2O2): 14.6 | White cotton [3, 13]: 1.5 | White cotton [3, 14]: 0.5 | BC1 [4, 10]: 16.5 | BC1 [4, 14]: 10.9

Nc1c(N=Nc2ccc([N+](=O)[O-])cc2)c(S(=O)(=O)[O-])cc2cc(S(=O)(=O)[O-])c(N=Nc3ccccc3)c(O)c12.[Na+].[Na+] [Acid black 1]
% bleaching (a) [5]: 27% | % bleaching (b) [5]: 53%

Nc1c(S(=O)(=O)[O-])cc(Nc2ccccc2)c2c1C(=O)c1ccccc1C2=O.[Na+] [Acid blue 25]
% bleaching (a) [5]: 66% | % bleaching (b) [5]: 96%

O=S(=O)([O-])c1cccc(N=Nc2ccc(N=Nc3ccc(Nc4ccccc4)c4c(S(=O)(=O)[O-])cccc34)c3ccccc23)c1.[Na+].[Na+] [Acid blue 113]
% bleaching (a) [5]: 79% | % bleaching (b) [5]: 99%

COC(=O)C12CN(CCN(C)C)CC(C(=O)OC)(C1=O)C(c1ccccn1)N(C)C2c1ccccn1 (stereo not shown) [BC]
bleaching of Acid blue 25 in solution [6, 15]: much slower | bleaching of Direct violet 51 in solution [6, 15]: much slower | bleaching of Acid blue 25 in solution [6, 16]: effectively bleached | bleaching of Direct violet 51 in solution [6, 16]: effectively bleached

COc1cc(N=Nc2c(Br)cc([N+](=O)[O-])cc2[N+](=O)[O-])c(NC(C)=O)cc1N(CCOC(C)=O)CCOC(C)=O [Blue 79:1, disperse blue 79:1]
Delta E [7, 17]: 2.8 | Delta E [7, 18]: 2.8 | Delta E [7, 14]: 2.3

COC(=O)C12CN(CCN3CCOCC3)CC(C(=O)OC)(C1=O)C(c1ccccn1)N(C)C2c1ccccn1 (stereo not shown) [CC]
bleaching of Acid blue 25 in solution [6, 15]: much slower | bleaching of Direct violet 51 in solution [6, 15]: much slower | bleaching of Acid blue 25 in solution [6, 16]: effectively bleached | bleaching of Direct violet 51 in solution [6, 16]: effectively bleached

OO [Catalyst H2O2, hydrogen peroxide]
Delta E ([2]; 0 micromolar AC, 1 millimolar H2O2 alone): 18.5 | Delta E ([2]; 0 micromolar AC, 2 millimolar H2O2 alone): 18.1 | White cotton [3, 19]: 1.5 | White cotton [3, 20]: 1.4 | BC1 [4, 19]: 19.3 | BC1 [4, 20]: 18.9

Oc1cc(-c2ccccn2)nc(-c2ccccn2)c1 [DC]
Delta E [1, 9]: 12.3 | Delta E [1, 10]: 12.2 | Delta E [1, 11]: 12.0 | Delta E [1, 12]: 11.7 | bleaching of the tea stain [8]: significantly above that of a control solution

COc1cc(N=Nc2c(C)cc(C)cc2S(=O)(=O)[O-])c(C)cc1N=Nc1c(S(=O)(=O)[O-])cc2cc(Nc3ccccc3)ccc2c1O.[Na+].[Na+] [Direct violet 51]
% bleaching (a) [5]: 1% | % bleaching (b) [5]: 29%

COC(=O)C12CN(CCN3CCCC3)CC(C(=O)OC)(C1=O)C(c1ccccn1)N(C)C2c1ccccn1 (stereo not shown) [EC]
White cotton [3, 13]: 1.5 | White cotton [3, 14]: 0.7 | BC1 [4, 10]: 17.5 | BC1 [4, 14]: 13.1

Cc1ccc(Nc2ccc(O)c3c2C(=O)c2ccccc2C3=O)cc1 [Violet 13, solvent violet 13]
Delta E [7, 17]: 4.0 | Delta E [7, 18]: 1.6 | Delta E [7, 14]: 0.2
